Data reported in patent publication US20250074897A1, “PYRIDAZINONES AS PARP7 INHIBITORS” (Ribon Therapeutics, Inc., priority 2019, published 2025).

target: T1, PARP7 (TIPARP) (Homo sapiens, UniProt Q7Z3E1); assay: Enzymatic assay for inhibition of PARP7: TR-FRET displacement of biotinylated Probe A from the TIPARP active site; type: binding; details: 6 nM TIPARP, 2 nM Probe A, 25° C., 30 min incubation with test compound
T1 sequence (Q7Z3E1 1-657): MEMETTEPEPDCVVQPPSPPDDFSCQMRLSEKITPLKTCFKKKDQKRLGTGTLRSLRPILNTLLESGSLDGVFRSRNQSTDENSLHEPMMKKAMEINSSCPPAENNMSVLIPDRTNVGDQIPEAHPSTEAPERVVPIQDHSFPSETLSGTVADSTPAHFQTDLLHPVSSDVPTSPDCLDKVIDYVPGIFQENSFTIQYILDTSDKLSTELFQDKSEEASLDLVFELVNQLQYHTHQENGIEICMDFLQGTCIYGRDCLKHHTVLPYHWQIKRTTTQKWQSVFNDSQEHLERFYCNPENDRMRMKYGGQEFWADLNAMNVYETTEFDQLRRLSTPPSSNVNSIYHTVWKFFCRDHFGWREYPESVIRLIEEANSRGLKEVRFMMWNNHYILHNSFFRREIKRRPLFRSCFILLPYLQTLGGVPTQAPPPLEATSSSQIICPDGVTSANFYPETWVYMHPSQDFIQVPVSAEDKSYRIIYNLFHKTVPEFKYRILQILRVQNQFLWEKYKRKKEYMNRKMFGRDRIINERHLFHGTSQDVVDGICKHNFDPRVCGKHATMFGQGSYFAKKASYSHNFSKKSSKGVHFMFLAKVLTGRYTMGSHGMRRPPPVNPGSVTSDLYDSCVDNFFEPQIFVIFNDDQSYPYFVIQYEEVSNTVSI
Protocol: Enzymatic Assay for Inhibition of PARP7
Displacement of Probe A, a biotinylated probe binding to the TIPARP active site, was measured using a time-resolved fluorescence energy transfer (TR-FRET) assay. 20 nL of a dose response curve of each test compound was spotted in black 384-well polystyrene proxiplates (Perkin Elmer) using a Mosquito (TTP Labtech). Reactions were performed in a 8 μL volume by adding 6 μL of TIPARP and Probe A in assay buffer (20 mM HEPES pH=8, 100 mM NaCl, 0.1% bovine serum albumin, 2 mM DTT and 0.002% Tween20), incubating with test compound at 25° C. for 30 min, then adding 2 μL of ULight-anti 6xHis and LANCE Eu-W1024 labeled streptavidin (Perkin Elmer). The final concentrations of TIPARP and Probe A were 6 nM and 2 nM, respectively. The final concentration of ULight-anti 6xHis and LANCE Eu-W1024 labeled streptavidin were 4 nM and 0.25 nM, respectively. Reactions were incubated at 25° C. for an additional 30 min, then read on an Envision platereader equipped with a LANCE/DELFIA top mirror (Perkin Elmer) using excitation of 320 nm and emission of 615 nm and […] with a 90 μs delay. The ratio of the 665/615 nm emission were calculated for each well to determine the amount of complex of TIPARP and Probe A in each well. Control wells containing a negative control of 0.25% DMSO vehicle or a positive control of 100 μM 5-(5-(piperidin-4-yloxy)isoindolin-2-yl)-4-(trifluoromethyl)pyridazin-3(2H)-one were used to calculate the % inhibition as described below:
where TRFempd is the TR-FRET ratio from the compound treated well, TRFmin is the TR-FRET ratio from the 5-(5-(piperidin-4-yloxy)isoindolin-2-yl)-4-(trifluoromethyl)pyridazin-3(2H)-one-treated positive control well and TRFmax is the TR-FRET ratio from the DMSO-treated negative control well.
The % inhibition values were plotted as a function of compound concentration and the following 4-parameter fit was applied to derive the IC50 values:
where top and bottom are normally allowed to float, but may be fixed at 100 or 0 respectively in a 3-parameter fit. The Hill Coefficient is normally allowed to float but may also be fixed at 1 in a 3-parameter fit. Y is the % inhibition and X is the compound concentration.

IC50 [nM] | SMILES
< 100 | C[C@@H](COC[C@@H](O)C(=O)N1CCN(c2ncc(C(F)(F)F)cn2)CC1)Nc1cn[nH]c(=O)c1C(F)(F)F (single isomer, unassigned) [Example 1A]
< 100 | C[C@@H](COC[C@H](O)C(=O)N1CCN(c2ncc(C(F)(F)F)cn2)CC1)Nc1cn[nH]c(=O)c1C(F)(F)F (single isomer, unassigned) [Example 1B]
< 100 | C[C@@H](COC[C@@H](O)C(=O)N1CCN(c2ncc(Cl)cn2)CC1)Nc1cn[nH]c(=O)c1C(F)(F)F (single isomer, unassigned) [Example 6A]
< 100 | C[C@@H](COC[C@H](O)C(=O)N1CCN(c2ncc(Cl)cn2)CC1)Nc1cn[nH]c(=O)c1C(F)(F)F (single isomer, unassigned) [Example 6B]
< 100 | C[C@@H](COC[C@@H](O)C(=O)N1CCN(c2ncc(C(F)(F)F)cn2)CC1)Oc1cn[nH]c(=O)c1C(F)(F)F (single isomer, unassigned) [Example 7A]
< 100 | C[C@@H](COC[C@H](O)C(=O)N1CCN(c2ncc(C(F)(F)F)cn2)CC1)Oc1cn[nH]c(=O)c1C(F)(F)F (single isomer, unassigned) [Example 7B]
< 100 | C[C@@H](COC[C@@H](O)C(=O)N1CCN(c2ncc(C(F)(F)F)cn2)CC1)Oc1cn[nH]c(=O)c1Br (single isomer, unassigned) [Example 12A]
< 100 | C[C@@H](COC[C@H](O)C(=O)N1CCN(c2ncc(C(F)(F)F)cn2)CC1)Oc1cn[nH]c(=O)c1Br (single isomer, unassigned) [Example 12B]
< 100 | [2H]C1([2H])N(C(=O)[C@H](O)COC[C@H](C)Nc2cn[nH]c(=O)c2C(F)(F)F)C([2H])([2H])C([2H])([2H])N(c2ncc(C(F)(F)F)cn2)C1([2H])[2H] (single isomer, unassigned) [Example 13A]
< 100 | [2H]C1([2H])N(C(=O)[C@@H](O)COC[C@H](C)Nc2cn[nH]c(=O)c2C(F)(F)F)C([2H])([2H])C([2H])([2H])N(c2ncc(C(F)(F)F)cn2)C1([2H])[2H] (single isomer, unassigned) [Example 13B]
< 100 | O=C([C@H](O)COC[C@@H]1c2ccccc2CN1c1cn[nH]c(=O)c1C(F)(F)F)N1CCN(c2ncc(C(F)(F)F)cn2)CC1 (single isomer, unassigned) [Example 17A]
< 100 | O=C([C@H](O)COC[C@H]1c2ccccc2CN1c1cn[nH]c(=O)c1C(F)(F)F)N1CCN(c2ncc(C(F)(F)F)cn2)CC1 (single isomer, unassigned) [Example 17B]
< 100 | O=C([C@@H](O)COC[C@@H]1c2ccccc2CN1c1cn[nH]c(=O)c1C(F)(F)F)N1CCN(c2ncc(C(F)(F)F)cn2)CC1 (single isomer, unassigned) [Example 17C]
< 100 | O=C([C@@H](O)COC[C@H]1c2ccccc2CN1c1cn[nH]c(=O)c1C(F)(F)F)N1CCN(c2ncc(C(F)(F)F)cn2)CC1 (single isomer, unassigned) [Example 17D]
< 100 | C[C@@H](COC[C@@H](O)C(=O)N1CCN(c2cnc(C(F)(F)F)cn2)CC1)Nc1cn[nH]c(=O)c1C(F)(F)F [Example 2A, 5-(((S)-1-((R)-2-hydroxy-3-oxo-3-(4-(5-(trifluoromethyl)pyrazin-2-yl)piperazin-1-yl)propoxy)propan-2-yl)amino)-4-(trifluoromethyl)pyridazin-3(2H)-one]
< 100 | C[C@@H](COC[C@H](O)C(=O)N1CCN(c2cnc(C(F)(F)F)cn2)CC1)Nc1cn[nH]c(=O)c1C(F)(F)F [Example 2B, 5-(((S)-1-((S)-2-hydroxy-3-oxo-3-(4-(5-(trifluoromethyl)pyrazin-2-yl)piperazin-1-yl)propoxy)propan-2-yl)amino)-4-(trifluoromethyl)pyridazin-3(2H)-one]
< 100 | C[C@@H](COC[C@@H](O)C(=O)N1CCN(c2ncc(C(F)(F)F)s2)CC1)Nc1cn[nH]c(=O)c1C(F)(F)F [Example 3A, 5-((S)-1-((R)-2-hydroxy-3-oxo-3-(4-(5-(trifluoromethyl)thiazol-2-yl)piperazin-1-yl)propoxy)propan-2-ylamino)-4-(trifluoromethyl)pyridazin-3(2H)-one]
< 100 | C[C@@H](COC[C@H](O)C(=O)N1CCN(c2ncc(C(F)(F)F)s2)CC1)Nc1cn[nH]c(=O)c1C(F)(F)F [Example 3B, 5-((S)-1-((S)-2-hydroxy-3-oxo-3-(4-(5-(trifluoromethyl)thiazol-2-yl)piperazin-1-yl)propoxy)propan-2-ylamino)-4-(trifluoromethyl)pyridazin-3(2H)-one]
< 100 | C[C@@H](COC[C@@H](O)C(=O)N1CCN(c2ncc(C(F)F)cn2)CC1)Nc1cn[nH]c(=O)c1C(F)(F)F [Example 4A, 5-(((S)-1-((R)-3-(4-(5-(difluoromethyl)pyrimidin-2-yl)piperazin-1-yl)-2-hydroxy-3-oxopropoxy)propan-2-yl)amino)-4-(trifluoromethyl)pyridazin-3(2H)-one]
< 100 | C[C@@H](COC[C@H](O)C(=O)N1CCN(c2ncc(C(F)F)cn2)CC1)Nc1cn[nH]c(=O)c1C(F)(F)F [Example 4B, 5-(((S)-1-((S)-3-(4-(5-(difluoromethyl)pyrimidin-2-yl)piperazin-1-yl)-2-hydroxy-3-oxopropoxy)propan-2-yl)amino)-4-(trifluoromethyl)pyridazin-3(2H)-one]
< 100 | C[C@@H](COCC(C)(O)C(=O)N1CCN(c2ncc(C(F)(F)F)cn2)CC1)Nc1cn[nH]c(=O)c1C(F)(F)F (stereo partly drawn) [Example 5, 5-(((2S)-1-(2-hydroxy-2-methyl-3-oxo-3-(4-(5-(trifluoromethyl)pyrimidin-2-yl)piperazin-1-yl)propoxy)propan-2-yl)amino)-4-(trifluoromethyl)pyridazin-3(2H)-one]
< 100 | C[C@@H](COC[C@@H](O)C(=O)N1CCN(c2cnc(C(F)(F)F)cn2)CC1)Oc1cn[nH]c(=O)c1C(F)(F)F [Example 8A, 5-(((S)-1-((R)-2-hydroxy-3-oxo-3-(4-(5-(trifluoromethyl)pyrazin-2-yl)piperazin-1-yl)propoxy)propan-2-yl)oxy)-4-(trifluoromethyl)pyridazin-3(2H)-one]
< 100 | C[C@@H](COC[C@H](O)C(=O)N1CCN(c2cnc(C(F)(F)F)cn2)CC1)Oc1cn[nH]c(=O)c1C(F)(F)F [Example 8B, 5-(((S)-1-((S)-2-hydroxy-3-oxo-3-(4-(5-(trifluoromethyl)pyrazin-2-yl)piperazin-1-yl)propoxy)propan-2-yl)oxy)-4-(trifluoromethyl)pyridazin-3(2H)-one]
< 100 | C[C@@H](COC[C@@H](O)C(=O)N1CCN(c2ncc(Cl)cn2)CC1)Oc1cn[nH]c(=O)c1C(F)(F)F [Example 9A, 5-(((S)-1-((R)-3-(4-(5-chloropyrimidin-2-yl)piperazin-1-yl)-2-hydroxy-3-oxopropoxy)propan-2-yl)oxy)-4-(trifluoromethyl)pyridazin-3(2H)-one]
< 100 | C[C@@H](COC[C@@H](O)C(=O)N1CCN(c2ccc(C#N)cn2)CC1)Oc1cn[nH]c(=O)c1C(F)(F)F [Example 10A, 6-(4-((R)-2-hydroxy-3-((S)-2-((6-oxo-5-(trifluoromethyl)-1,6-dihydropyridazin-4-yl)oxy)propoxy)propanoyl)piperazin-1-yl)nicotinonitrile]
< 100 | C[C@@H](COC[C@@H](O)C(=O)N1CCN(c2ncc(C(F)F)cn2)CC1)Oc1cn[nH]c(=O)c1C(F)(F)F [Example 11A, 5-(((S)-1-((R)-3-(4-(5-(difluoromethyl)pyrimidin-2-yl)piperazin-1-yl)-2-hydroxy-3-oxopropoxy)propan-2-yl)oxy)-4-(trifluoromethyl)pyridazin-3(2H)-one]
